Measurements published in patent US20130156768A1, “COMBINATION OF ANTI-CTLA4 ANTIBODY WITH BRAF INHIBITORS FOR THE SYNERGISTIC TREATMENT OF PROLIFERATIVE DISEASES” (Bristol-Myers Squibb Company, priority 2010, published 2013).

Tests used:
OVA-specific T cells [1] = assay: Model of antigen-induced T-cell proliferation (OVA adoptive transfer, OVA-specific tetramer staining); assay type: in vivo, C57BL6 mice; details: CTLA-4 mAb 20 mg/kg days 1, 3; BRAF inhibitor 100 mg/kg days 1, 3, 5; erlotinib 100 mg/kg p.o. daily days 1-5; FIG. 3
Method: The effect of the combination of a BRAF inhibitor and CTLA-4 mAb was evaluated in a model of antigen-induced T-cell proliferation. In this model, T cells specific for the antigen ovalbumin (OVA) were adoptively transferred into naive C57BL6 mice on study day −1. On Study Day 0, animals were challenged with 250 ug of an OVA peptide (i.v.). Animals were reandomized and divided into groups of 5. Treatments were administered as follows: CTLA-4 mAb—20 mg/kg—study days 1 and 3; Methyl {5-[2-chloro-2-methylphenyl)-1-hydroxy-3-oxo-2,3-dihydro-1H-isoindol-1-yl]-1H-benzimidazol-2-yl}carbamate—100 mg/kg—study days 1, 3, and 5. In addition, another study group received erlotinib (TARCEVA®) daily at 100 mg/kg, p.o. from study days 1 through 5. Combination groups consisted of Compound Ia and CTLA-4 mAb or erlotinib+CTLA-4 mAb following the same schedules. Control animals received the OVA challenge and no further treatment. Expansion of OVA-specific T cells was measured prior to OVA challenge and on days 2, 5, 7 and 16 by OVA-specific tetramer staining.

SA1N fibrosarcoma = assay: Antitumor activity in the SA1N fibrosarcoma tumor model; assay type: in vivo
Method: In addition, combination of both agents synergistically expanded antigen-specific T cells when dosed concurrently.
In the SA1N tumor model, the effect of the combination of both agents was investigated under either a concurrent dosing regimen or a sequential schedule.
Sa1N tumors were implanted s.c. and treatments were administered as follows: Methyl {5-[2-chloro-2-methylphenyl)-1-hydroxy-3-oxo-2,3-dihydro-1H-isoindol-1-yl]-1H-benzimidazol-2-yl}carbamate, […], 20 mg/kg, Q4D×3, starting on day 17.

OVA-specific T cells [2] = assay: Second study in the OVA adoptive transfer model (OVA-specific T cell responses); assay type: in vivo, murine; details: agent added to CTLA-4 mAb, FIG. 5
From the text: In addition, combination of both agents synergistically expanded antigen-specific T cells when dosed concurrently. The effect of this promising combination was further investigated in a) a tumor model sensitive to CTLA-4 blockade (SA1N fibrosarcoma); b) in the antigen (OVA)-specific T cell model to assess the effect of Methyl {5-[2-chloro-2-methylphenyl)-1-hydroxy-3-oxo-2,3-dihydro-1H-isoindol-1-yl]-1H-benzimidazol-2-yl}carbamate at different dose levels and compared its activity to another BRAF inhibitor (EXT-000153, Genentech) and EVRI.
Previously, the unexpected expansion of antigen-specific T cells with the use of Methyl {5-[2-chloro-2-methylphenyl)-1-hydroxy-3-oxo-2,3-dihydro-1H-isoindol-1-yl]-1H-benzimidazol-2-yl}carbamate+CTLA-4 mAb in an OVA adoptive transfer model was observed (see Example 2). Thus, a second study was designed to confirm these initial observations to determine the dose effect of Methyl {5-[2-chloro-2-methylphenyl)-1-hydroxy-3-oxo-2,3-dihydro-1H-isoindol-1-yl]-1H-benzimidazol-2-yl}carbamate and to determine whether this phenomenon could also be elicited by other RAF inhibitors. In addition, EVRI, an EGFR/VEGFR inhibitor which inhibits the MAPK pathway was also included in this experiment.

CT26 colon carcinoma = assay: Antitumor activity in the murine CT26 colon carcinoma model; assay type: in vivo; details: for % TGI: CT26
From the text: Thus, there was an interest in determining whether a potentiation of an antitumor immune response could be achieved by the combination of a CTLA-4 blocking mAb and a BRAF inhibitor in a murine CT26 colon carcinoma model.
Pharmacology studies are currently being conducted in support of the proposed clinical trial evaluating the antitumor activity of the BRAF inhibitor Methyl {5-[2-chloro-2-methylphenyl)-1-hydroxy-3-oxo-2,3-dihydro-1H-isoindol-1-yl]-1H-benzimidazol-2-yl}carbamate, and ipilimumab in subjects with advanced melanoma. Efficacy studies were conducted in the CT26 colon carcinoma, a tumor model sensitive to CTLA-4 blockade.
Two different combination schedules were evaluated, concurrent and sequential. In the concurrent setting, Methyl {5-[2-chloro-2-methylphenyl)-1-hydroxy-3-oxo-2,3-dihydro-1H-isoindol-1-yl]-1H-benzimidazol-2-yl}carbamate (100 mg/kg, p.o.) was administered every other day for […] while CTLA-4 mAb (20 mg/kg, i.p.) was dosed every 4 days for 3 doses starting on day 5. In the sequential setting, Methyl {5-[2-chloro-2-methylphenyl)-1-hydroxy-3-oxo-2,3-dihydro-1H-isoindol-1-yl]-1H-benzimidazol-2-yl}carbamate (100 mg/kg, p.o.) was dosed every other day for 4 doses from day 4-10 while CTLA-4 mAb (20 mg/kg, i.p.) was dosed every 4 days for 3 doses starting on day 11. Control groups consisted of each agent dosed in combination with vehicle control following the same schedule.

| SMILES | OVA tetramer response (expansion of OVA-specific T cells) (OVA-specific T cells [1]) | toxicity of extended dosing (SA1N fibrosarcoma; SA1N tumor model, 7 doses used in the concurrent regimen) | complete regressions (SA1N fibrosarcoma; SA1N, sequential treatment: BRAF inhibitor 100 mg/kg Q2Dx4 from day 10, CTLA-4 mAb 20 mg/kg Q4Dx3 from day 17) | effect on the OVA-specific T cell expansion elicited by CTLA-4 mAb (OVA-specific T cells [2]) | % TGI (CT26 colon carcinoma; concurrent schedule, Day 26, BRAF inhibitor 100 mg/kg p.o. every other day x7 from day 4, CTLA-4 mAb 20 mg/kg i.p. every 4 days x3 from day 5) | % TGI (CT26 colon carcinoma; sequential schedule, day 26, BRAF inhibitor 100 mg/kg p.o. every other day x4 day 4-10, CTLA-4 mAb 20 mg/kg i.p. every 4 days x3 from day 11) | complete regressions (CR) (CT26 colon carcinoma; CT-26 colon carcinoma model) |
| --- | --- | --- | --- | --- | --- | --- | --- |
| COC(=O)Nc1nc2cc(C3(O)c4ccccc4C(=O)N3c3cc(Cl)ccc3C)ccc2[nH]1 (centres unmarked) | effect similar to CTLA-4 mAb | toxic | no regression | enhanced CTLA-4 blockade OVA-specific T cell expansion in a dose-related manner | 70% | 77% | 1 CR |
| C#Cc1cccc(Nc2ncnc3cc(OCCOC)c(OCCOC)cc23)c1 [erlotinib, reference compound] | decreased the response | – | – | – | – | – | – |
